From patent US12275733B2, “Substituted pyrido[3,4-b]indoles for the treatment of cartilage disorders” (Sanofi, priority 2016, dated 2025)

What was measured:
ATDC5 cells = test: Chondrogenesis activity assay in ATDC5 cells (collagen type II induction, immunofluorescence); type: cell-based, mouse; conditions: Mus musculus; for EC50: collagen type II induction in ATDC5 cells, concentration reaching 50% of maximum induction; for Emax: maximum percent induction of collagen type II relative to internal reference compound at 10 μM, ATDC5 cells
How it was run: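 Mouse ATDC5 cells in insulin (10 μg/ml)-containing DMEM/F12 differentiation medium with 5% FCS were exposed to compound, typically 40 nM–10 μM at 0.1% DMSO, for 4 days at 37 °C. Intracellular collagen type II was quantified by Alexa Fluor 488 immunostaining with high-content imaging, relative to DMSO and a 10 μM reference compound.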

[1] = system: primary human chondrocyte pellet cultures; test: Chondrogenesis activity assay in primary human chondrocyte pellet cultures (proteoglycan (aggrecan) induction, Blyscan assay); type: cell-based; conditions: for EC50: 336 h, proteoglycan (aggrecan) induction, primary human chondrocyte pellets, 2 weeks culture; for Emax: Homo sapiens, Chondrocyte, maximum percent proteoglycan (aggrecan) induction relative to the internal reference compound at 10 μM
Procedure: B) Chondrogenesis Activity Assay in Primary Human Chondrocyte Pellet Cultures
In this assay human articular chondrocytes are harvested by enzymatic digestion from articular cartilage and passaged several times to dedifferentiate the chondrocytes and to propagate the cells. Cells are cultured as cell pellets in the presence of the compounds of the invention over 2 weeks, and the chondrogenic differentiation is quantified by the production of the chondrogenic marker aggrecan (proteoglycan).
In detail, primary chondrocytes were harvested by enzymatic digestion from cartilage of osteoarthritis patients undergoing knee joint replacement surgery, and cultured in vitro. Cells were passaged one or two times and aliquots were cryopreserved. To initiate chondrogenesis experiments, cell aliquots were thawn, cultured in Chondrocyte Growth Medium (CGM, Lonza, #CC-3216) and passaged twice to further propagate and dedifferentiate cells. Pellet cultures were initiated by seeding 2.5×10E5 cells per well into a 96-well deep well plate in 600 μl chondrocyte differentiation medium consisting of Dulbecco's Modified Eagle Medium (DMEM, Invitrogen, #41966), 1×ITS-solution (Insulin/Transferrin/sodium selenite; 100× solution: Invitrogen, #51500056), 5 μg/mL linoleic acid (Sigma, #L1012-1G), 1× nonessential amino acids (100× solution: Invitrogen, #11140); 10 nM Dexamethasone, 2 ng/ml TGF-β1 (transforming growth factor β1) and 10 μg/ml ascorbic acid. Cells were spun to pellets by centrifugation (10 min, 400×g). Test compounds dissolved in DMSO were added to yield increasing compound concentrations, typically from 40 nM to 10 μM, and a final DMSO concentration of 0.1%, and the cell pellets cultured at 37° C., and 5% CO2 for 2 weeks. On each 96-well plate, control wells containing no test compound but the same concentration of DMSO, i.e. untreated cells, were included and used as reference for the determination of the effect of the test compounds on the cells, and wells containing an internal reference compound at a concentration of 10 μM were included and used as positive control and for standardizing the results. Chondrocyte differentiation medium and the compounds were exchanged twice weekly until harvest of the pellets.
For harvest of the pellets, medium was removed and the pellet was homogenized by enzymatic digestion. 100 μl of protease solution containing 0.4 mg/ml papain, 50 mM sodium phosphate, 4 mM EDTA and 0.48 mg/ml L-cysteine was added to the pellet in each well of a 96-well plate, the plate was sealed with a plate sealer foil (SILVERseal, Greiner Bio-One) and incubated for 4 to 6 hours at 65° C. with agitation.
The concentration of proteoglycan (aggrecan) was determined by quantification of the sulfated glycosaminoglycan side chains of aggrecan using the Blyscan assay (Kit from Biocolor). Aliquots of the papain-digest were transferred to 400 μl of Blyscan dye solution and incubated at room temperature for 45 min with agitation (1200 rpm). The mixture was centrifuged at 3760×g for 45 min, the supernatant was discarded, and the stained pellet was redissolved in 400 μl of Blyscan dissociation reagent by rotation until the precipitate completely resolved. Optical density was measured at 656 nm using a Tecan Saphire2 instrument, and the amount of proteoglycan determined against a standard curve with chondroitin-4-sulfate.
Induction of proteoglycan (aggrecan) was calculated for each compound concentration relative to the control (untreated cells, i.e. no test compound added), and an EC50 value (effective concentration 50 (in μM (micromollliter)), i.e. the compound concentration at which the effect of the compound on proteoglycan (aggrecan) induction reaches 50% of the maximum induction) was calculated using a sigmoidal signal fit procedure. […]

SMILES | EC50 (ATDC5 cells) [µM] | Emax (ATDC5 cells) [%] | EC50 [1] [µM] | Emax [1] [%]
Cc1nccc2c1[nH]c1c(-c3ccc(CNC4CCCC4)cc3)cc(Cl)cc12 [Example 29, [4-(6-Chloro-1-methyl-9H-pyrido[3,4-b]indol-8-yl)-benzyl]-cyclopentyl-amine] | > 1.1 | < 20 | 1.5 | 100 to 200
FC(F)(F)Cn1c2cnccc2c2cc(Cl)cc(-c3cnn(Cc4cccnc4)c3)c21 [Example 2, 6-Chloro-8-(1-(pyridin-3-ylmethyl)-1H-pyrazol-4-yl)-9-(2,2,2-trifluoroethyl)-9H-pyrido[3,4-b]indole] | 0.71 | > 80 | 4.4 | > 200
Cc1nccc2c1[nH]c1c(-c3cccc(Oc4ncc(Br)cn4)c3)cc(Cl)cc12 [Example 37, 8-[3-(5-Bromo-pyrimidin-2-yloxy)-phenyl]-6-chloro-1-methyl-9H-pyrido[3,4-b]indole] | > 3.3 | 20 to 50 | 4.3 | 100 to 200
Cc1nccc2c1[nH]c1c(-c3ccc4c(c3)OC(C)(C)C4)cc(Cl)cc12 [Example 195, 6-Chloro-8-(2,2-dimethyl-2,3-dihydro-benzofuran-6-yl)-1-methyl-9H-pyrido[3,4-b]indole] | > 10 | < 20 | 14 | < 40
OCCn1cc(-c2cc(Cl)cc3c4ccncc4n(CC(F)(F)F)c23)cn1 [Example 10, 2-(4-[6-Chloro-9-(2,2,2-trifluoroethyl)-9H-pyrido[3,4-b]indol-8-yl]pyrazol-1-yl)ethanol] | 0.69 | > 80 | 2.4 | 40 to 100
COc1nc(Cl)ccc1-c1cc(Cl)cc2c1[nH]c1c(C)nccc12 [Example 122, 6-Chloro-8-(6-chloro-2-methoxy-pyridin-3-yl)-1-methyl-9H-pyrido[3,4-b]indole] | > 3.3 | 20 to 50 | 3.6 | 100 to 200
Cc1nccc2c1[nH]c1c(-c3cccnc3OCc3ccccc3)cc(Cl)cc12 [Example 119, 8-(2-Benzyloxy-pyridin-3-yl)-6-chloro-1-methyl-9H-pyrido[3,4-b]indole] | > 3.3 | < 20 | 21 | 40 to 100
Cc1nccc2c1[nH]c1c(-c3cc(C(F)(F)F)cc(C(F)(F)F)c3)cc(Cl)cc12 [Example 251, 8-(3,5-Bis-trifluoromethyl-phenyl)-6-chloro-1-methyl-9H-pyrido[3,4-b]indole] | > 10 | < 20 | 9.1 | 40 to 100
COc1ccc(-c2cc(Cl)cc3c2[nH]c2c(C)nccc23)nc1N [Example 218, 6-(6-Chloro-1-methyl-9H-pyrido[3,4-b]indol-8-yl)-3-methoxy-pyridin-2-ylamine] | > 1.1 | < 20 | 40 | < 40
Cc1nccc2c1[nH]c1c(-c3ccc(OCCn4cccn4)cc3)cc(Cl)c(C)c12 [Example 45] | 0.13 | > 80 | 0.22 | 40 to 100
COc1ccc(-c2cc(Cl)c(C)c3c2[nH]c2c(C)nccc23)cc1 [Example 27, 6-Chloro-8-(4-methoxy-phenyl)-1,5-dimethyl-9H-pyrido[3,4-b]indole] | 0.097 | > 80 | 3.5 | > 200
